How the values were obtained:
hCoV-OC43 = assay: HCoV OC43 CPE assay in Huh7 cells; format: cell-based; details: Betacoronavirus 1, Huh-7
[1] = tested on: Human Coronavirus 229E (hCoV-229E); assay: microbe, parasite or virus in culture; format: cell-based
[2] = Cytotoxicity in Huh7 cells without virus infection (CellTiter Glo); details: human
Huh7 cells = assay: as above

With `CCN(CC)CCCC(C)Nc1ccnc2cc(Cl)ccc12` (centres unmarked) [chloroquine phosphate] as the compound, how does the EC50 (hCoV-OC43) read?
The EC50 was 3.12 µM.

For `NC(=O)c1ncn([C@@H]2O[C@H](CO)[C@@H](O)[C@H]2O)n1` [Ribavirin], which IC50 [1] is on record?
The IC50 was 30 µM.

For `CCC(CC)COC(=O)[C@H](C)N[P@](=O)(OC[C@H]1O[C@@](C#N)(c2ccc3c(N)ncnn23)[C@H](O)[C@@H]1O)Oc1ccccc1` [Remdesivir], which CC50 at 7 days [2] is on record?
Its CC50 at 7 days is 17.2 µM.

What about the “Average Viability (%)” value (Huh7 cells; 0.046 μM) of the same compound?
The value was 99.99%.

And the “Average Viability (%)” value (Huh7 cells; 0.137 μM)?
The value was 101.58%.

And the “Average Viability (%)” value (Huh7 cells; 0.412 μM)?
Its value is 104.10%.

And the “Average Viability (%)” value (Huh7 cells; 1.235 μM)?
Its value is 102.28%.

And the “Average Viability (%)” value (Huh7 cells; 3.704 μM)?
Its value is 86.91%.

What about the “Average Viability (%)” value (Huh7 cells; 11.11 μM) of the same compound?
The value was 56.84%.

What about the “Average Viability (%)” value (Huh7 cells; 33.33 μM) of the same compound?
The value was 36.88%.

And the “Average Viability (%)” value (Huh7 cells; 100.00 μM)?
Its value is 21.77%.

From patent publication US20230131808A1, “PEGYLATED INTERFERON TAU AND COMPOSITIONS AND METHODS THEREOF” (priority 2020, published 2023)
